Data on one compound can be found in US8853217B2, “Compounds useful as inhibitors of ATR kinase” (Vertex Pharmaceuticals Incorporated, priority 2011, dated 2014).

Data set [1] is described as follows: Pharmacokinetics following intravenous dosing. The following applies: in vivo. As to the method:
Noncompartmental pharmacokinetic parameters were analyzed using Watson Bioanalytical LIMS (Version 7.4; Thermo Fisher Scientific) from either the blood or plasma samples. The following parameters were estimated following intravenous (IV) dosing; terminal elimination half-life (T1/2=ln(2)/λz, where λz is the first order rate constant associated with the terminal (log-linear) portion of the curve.
The area under the curve (AUClast=area under the curve from the time of dosing to the last measurable concentration). The area under the curve extrapolated to infinity (AUC0-∞=AUClast+Clast/λz). The clearance (Cl; Cl=DoseIV/AUC0-∞). The area under the first moment curve (AUMClast=area under the concentration times time versus time curve from the time of dosing to the last measurable concentration). The area under the first moment curve extrapolated to infinity (AUMC0-∞=AUMClast+Clast×t/λz+Clast/λz^2). The mean residence time (MRT=AUMC0-∞/AUC0-∞) and the steady state volume of distribution (Vdss=MRT×Cl) (see Table 2 below for data).
Clearance and volume of distribution can also be obtained using methods known to one of skill in the art (see e.g., Handbook of Essential Pharmacokinetics, Pharmacodynamics and Drug Metabolism for Industrial Scientists, Younggil Kwon, pp 18-28 (Non-compartmental Approach)).

Data set [2] deals with HCT116 colorectal cancer cells. The experiment in a line: Single Agent HCT116 Activity, 96 h cell viability (MTS) assay. In kind it is cell-based. The following applies: Homo sapiens, HCT-116, read-out: Single agent HT116 IC50. As to the method:
Compounds can be screened for single agent activity against HCT116 colorectal cancer cells using a 96 h cell viability (MTS) assay. HCT116 are plated at 470 cells per well in 96-well polystyrene plates (Costar 3596) in 150 μl of McCoy's 5A media (Sigma M8403) supplemented with 10% foetal bovine serum (JRH Biosciences 12003), Penicillin/Streptomycin solution diluted 1:100 (Sigma P7539), and 2 mM L-glumtamine (Sigma G7513), and allowed to adhere overnight at 37° C. in 5% CO2. Compounds are then added to the cell media in 2-fold serial dilutions from a top final concentration of 10 μM as a full matrix of concentrations in a final cell volume of 200 μl, and the cells are then incubated at 37° C. in 5% CO2. After 96 h, 40 μl of MTS reagent (Promega G358a) is added to each well and the cells are incubated for 1 h at 37° C. in 5% CO2. Finally, absorbance is measured at 490 nm using a SpectraMax Plus 384 reader (Molecular Devices) and IC50 values can be calculated (see Table 2 below for data).

Data set [3] addresses T1, full-length ATR (Homo sapiens, UniProt Q13535).
T1 construct: Assays were carried out at 25° C. in the presence of 5 nM full-length ATR
The experiment in a line: ATR Inhibition Assay (radioactive-phosphate incorporation). In kind it is biochemical. The following applies: Ki(app); 10 μM ATP, 5 nM full-length ATR, 25° C. As for the experimental part:
Compounds were screened for their ability to inhibit ATR kinase using a radioactive-phosphate incorporation assay. Assays were carried out in a mixture of 50 mM Tris/HCl (pH 7.5), 10 mM MgCl2 and 1 mM DTT. Final substrate concentrations were 10 μM [γ-33P]ATP (3 mCi 33P ATP/mmol ATP, Perkin Elmer) and 800 μM target peptide (ASELPASQPQPFSAKKK (SEQ ID NO: 1)).
Assays were carried out at 25° C. in the presence of 5 nM full-length ATR. An assay stock buffer solution was prepared containing all of the reagents listed above, with the exception of ATP and the test compound of interest. 13.5 μL of the stock solution was placed in a 96 well plate followed by addition of 2 μL of DMSO stock containing serial dilutions of the test compound (typically starting from a final concentration of 15 μM with 3-fold serial dilutions) in duplicate (final DMSO concentration 7%). The plate was pre-incubated for 10 minutes at 25° C. and the reaction initiated by addition of 15 μL [γ-33P]ATP (final concentration 10 μM).
The reaction was stopped after […] by the addition of 30 μL 0.1M phosphoric acid containing 2 mM ATP. […]
After removing mean background values for all of the data points, Ki(app) data were calculated from non-linear regression analysis of the initial rate data using the Prism software package (GraphPad Prism version 3.0cx for Macintosh, GraphPad Software, San Diego Calif., USA). […]

For data set [4], the target named is T2, intracellular ATR (Homo sapiens, UniProt Q13535).
T2 construct: endogenous in cells; host or cells: HT29
T2 sequence (Q13535 whole entry): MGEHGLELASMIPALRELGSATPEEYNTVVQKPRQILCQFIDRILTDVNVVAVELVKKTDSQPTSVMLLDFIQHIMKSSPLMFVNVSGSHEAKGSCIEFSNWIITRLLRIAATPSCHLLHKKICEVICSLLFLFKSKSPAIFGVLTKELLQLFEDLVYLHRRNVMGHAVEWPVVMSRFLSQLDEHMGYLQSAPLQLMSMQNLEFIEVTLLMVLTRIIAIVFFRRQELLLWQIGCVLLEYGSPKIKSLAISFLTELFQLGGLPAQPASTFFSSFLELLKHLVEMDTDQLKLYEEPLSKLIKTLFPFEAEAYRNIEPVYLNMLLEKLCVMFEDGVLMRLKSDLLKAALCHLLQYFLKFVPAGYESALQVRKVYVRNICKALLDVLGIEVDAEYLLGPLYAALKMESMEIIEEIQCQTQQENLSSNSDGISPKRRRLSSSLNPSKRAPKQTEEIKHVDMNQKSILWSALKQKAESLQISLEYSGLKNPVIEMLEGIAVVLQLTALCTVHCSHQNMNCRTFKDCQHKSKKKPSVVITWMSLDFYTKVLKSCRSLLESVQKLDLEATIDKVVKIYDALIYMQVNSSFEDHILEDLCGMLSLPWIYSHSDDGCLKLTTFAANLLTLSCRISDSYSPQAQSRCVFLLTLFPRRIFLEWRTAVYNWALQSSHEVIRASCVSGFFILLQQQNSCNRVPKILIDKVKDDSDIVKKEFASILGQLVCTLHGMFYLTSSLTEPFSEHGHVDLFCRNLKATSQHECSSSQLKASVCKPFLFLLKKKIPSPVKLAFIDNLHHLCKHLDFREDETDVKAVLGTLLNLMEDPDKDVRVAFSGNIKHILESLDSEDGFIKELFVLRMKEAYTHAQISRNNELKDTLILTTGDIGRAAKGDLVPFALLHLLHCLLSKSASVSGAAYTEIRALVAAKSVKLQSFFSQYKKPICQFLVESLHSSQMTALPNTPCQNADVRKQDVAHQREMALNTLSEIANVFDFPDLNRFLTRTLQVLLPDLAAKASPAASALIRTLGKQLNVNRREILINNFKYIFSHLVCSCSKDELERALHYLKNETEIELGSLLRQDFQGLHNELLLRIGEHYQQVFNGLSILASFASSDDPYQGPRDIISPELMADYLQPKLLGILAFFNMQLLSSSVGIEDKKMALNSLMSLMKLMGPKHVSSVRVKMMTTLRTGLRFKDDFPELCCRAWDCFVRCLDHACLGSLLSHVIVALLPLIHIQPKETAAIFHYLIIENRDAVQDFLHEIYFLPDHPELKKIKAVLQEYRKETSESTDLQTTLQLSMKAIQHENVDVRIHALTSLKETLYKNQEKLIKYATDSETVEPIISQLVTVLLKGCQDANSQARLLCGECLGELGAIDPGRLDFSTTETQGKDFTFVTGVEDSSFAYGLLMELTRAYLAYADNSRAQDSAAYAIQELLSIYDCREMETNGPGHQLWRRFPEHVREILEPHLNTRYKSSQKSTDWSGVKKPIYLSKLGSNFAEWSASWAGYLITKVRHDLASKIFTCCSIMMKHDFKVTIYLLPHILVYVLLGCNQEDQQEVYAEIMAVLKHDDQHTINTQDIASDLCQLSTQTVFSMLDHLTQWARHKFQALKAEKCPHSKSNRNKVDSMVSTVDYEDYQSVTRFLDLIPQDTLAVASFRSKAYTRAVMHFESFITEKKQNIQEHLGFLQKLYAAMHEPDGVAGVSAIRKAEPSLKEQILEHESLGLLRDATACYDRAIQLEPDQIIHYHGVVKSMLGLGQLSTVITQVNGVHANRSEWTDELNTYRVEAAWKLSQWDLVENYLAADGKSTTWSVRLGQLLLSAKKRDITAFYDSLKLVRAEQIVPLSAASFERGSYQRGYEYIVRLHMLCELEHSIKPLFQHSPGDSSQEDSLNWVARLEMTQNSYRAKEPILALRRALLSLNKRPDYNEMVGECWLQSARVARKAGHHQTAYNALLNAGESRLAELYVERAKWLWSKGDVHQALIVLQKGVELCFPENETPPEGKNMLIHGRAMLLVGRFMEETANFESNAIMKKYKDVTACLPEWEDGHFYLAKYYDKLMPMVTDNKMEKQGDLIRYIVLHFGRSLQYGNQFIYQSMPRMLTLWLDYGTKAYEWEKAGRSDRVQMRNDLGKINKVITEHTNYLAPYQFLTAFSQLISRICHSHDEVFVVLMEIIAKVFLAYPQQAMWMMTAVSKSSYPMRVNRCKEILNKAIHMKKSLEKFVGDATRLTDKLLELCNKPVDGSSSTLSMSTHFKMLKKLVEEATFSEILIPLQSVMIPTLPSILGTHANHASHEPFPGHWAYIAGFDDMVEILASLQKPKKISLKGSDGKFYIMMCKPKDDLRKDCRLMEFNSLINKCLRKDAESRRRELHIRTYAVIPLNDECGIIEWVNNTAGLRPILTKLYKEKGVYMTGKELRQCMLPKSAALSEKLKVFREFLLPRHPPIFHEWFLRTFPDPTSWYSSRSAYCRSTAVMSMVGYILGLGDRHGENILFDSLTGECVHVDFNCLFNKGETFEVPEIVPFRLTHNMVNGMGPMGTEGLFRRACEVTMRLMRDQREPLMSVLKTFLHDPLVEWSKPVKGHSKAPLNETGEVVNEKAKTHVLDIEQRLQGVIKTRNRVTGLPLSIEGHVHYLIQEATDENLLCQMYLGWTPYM
T2 sequence (Q8WXE1 whole entry partner): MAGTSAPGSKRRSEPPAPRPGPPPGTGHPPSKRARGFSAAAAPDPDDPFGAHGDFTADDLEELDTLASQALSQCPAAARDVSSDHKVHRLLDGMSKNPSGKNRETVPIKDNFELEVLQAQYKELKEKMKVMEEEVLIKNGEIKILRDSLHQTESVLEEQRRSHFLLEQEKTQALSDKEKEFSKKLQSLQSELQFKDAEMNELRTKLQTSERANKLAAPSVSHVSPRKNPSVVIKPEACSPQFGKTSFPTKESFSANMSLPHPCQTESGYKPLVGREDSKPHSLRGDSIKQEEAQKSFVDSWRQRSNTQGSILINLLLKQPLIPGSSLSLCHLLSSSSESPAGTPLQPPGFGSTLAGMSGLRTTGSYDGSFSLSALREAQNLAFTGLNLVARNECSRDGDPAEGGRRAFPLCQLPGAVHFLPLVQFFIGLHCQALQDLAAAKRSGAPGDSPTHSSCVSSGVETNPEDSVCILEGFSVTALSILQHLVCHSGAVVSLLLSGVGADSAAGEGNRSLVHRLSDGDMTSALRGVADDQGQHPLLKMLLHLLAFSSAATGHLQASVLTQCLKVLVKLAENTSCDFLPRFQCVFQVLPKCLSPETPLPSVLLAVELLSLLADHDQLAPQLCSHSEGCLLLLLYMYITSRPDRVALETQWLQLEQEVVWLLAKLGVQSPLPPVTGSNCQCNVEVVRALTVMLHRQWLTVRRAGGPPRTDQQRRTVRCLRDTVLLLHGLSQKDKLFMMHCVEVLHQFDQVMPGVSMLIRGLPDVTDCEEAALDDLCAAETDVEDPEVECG
The experiment in a line: Cellular ATR Inhibition Assay (phosphorylated H2AX immunofluorescence in hydroxyurea treated HT29 cells). The data set is classed as cell-based. The note with it: 2 mM hydroxyurea, phosphorylated H2AX Ser139. As to the method:
Compounds can be screened for their ability to inhibit intracellular ATR using an immunofluorescence microscopy assay to detect phosphorylation of the ATR substrate histone H2AX in hydroxyurea treated cells. HT29 cells are plated at 14,000 cells per well in 96-well black imaging plates (BD 353219) in McCoy's 5A media (Sigma M8403) supplemented with 10% foetal bovine serum (JRH Biosciences 12003), Penicillin/Streptomycin solution diluted 1:100 (Sigma P7539), and 2 mM L-glumtamine (Sigma G7513), and allowed to adhere overnight at 37° C. in 5% CO2. Compounds are then added to the cell media from a final concentration of 25 μM in 3-fold serial dilutions and the cells are incubated at 37° C. in 5% CO2. […]
Cells are imaged for Alexa Fluor 488 and Hoechst intensity using the BD Pathway 855 Bioimager and Attovision software (BD Biosciences, Version 1.6/855) to quantify phosphorylated H2AX Ser139 and DNA staining, respectively. The percentage of phosphorylated H2AX-positive nuclei in a montage of 9 images at 20× magnification is then calculated for each well using BD Image Data Explorer software (BD Biosciences Version 2.2.15). […] The percentage of H2AX positive nuclei is finally plotted against concentration for each compound and IC50s for intracellular ATR inhibition are determined using Prism software (GraphPad Prism version 3.0cx for Macintosh, GraphPad Software, San Diego Calif., USA).

Data set [5] concerns HCT116 colorectal cancer cells. The experiment in a line: Cisplatin Sensitization Assay, 96 h cell viability (MTS). The data set is classed as cell-based. The note with it: concentration of compound required to reduce the IC50 of Cisplatin alone by at least 3-fold; HCT116, 96 h. As to the method: Compounds can be screened for their ability to sensitize HCT116 colorectal cancer cells to Cisplatin using a 96 h cell viability (MTS) assay. […] Compounds and Cisplatin are then both added simultaneously to the cell media in 2-fold serial dilutions from a top final concentration of 10 μM as a full matrix of concentrations in a final cell volume of 200 μl, and the cells are then incubated at 37° C. in 5% CO2. After 96 h, 40 μl of MTS reagent (Promega G358a) is added to each well and the cells are incubated for 1 h at 37° C. in 5% CO2. Finally, absorbance is measured at 490 nm using a SpectraMax Plus 384 reader (Molecular Devices) and the concentration of compound required to reduce the IC50 of Cisplatin alone by at least 3-fold (to 1 decimal place) can be reported.

T1 sequence (Q13535 whole entry): as the sequence (Q13535 whole entry) above

As for `CC(C)S(=O)(=O)c1ccc(-c2cnc(N)c(-c3cc(-c4ccc(CNCC5COC5)cc4)no3)n2)cc1` [I, 5-(4-(isopropylsulfonyl)phenyl)-3-(3-(4-((oxetan-3-ylmethylamino)methyl)phenyl)isoxazol-5-yl)pyrazin-2-amine], in data set [1] (blood or plasma samples), the clearance (in general, a measure of how efficiently the substance is removed, as volume per time) came out at 6 mL/min/kg. The Vd in data set [1] (steady state volume of distribution, read-out: Vss) amounted to 0.9 L/kg. For the same compound, the IC50 (in general, the point on the concentration scale where inhibition reaches its midpoint) in data set [2] turned out to be 62 nM; in data set [4], 16 nM. In addition, the Ki in data set [3] turned out to be 0.21 nM. Further, the Cisplatin sensitization in data set [5] amounted to 39 nM.
